We go through six molecules from US5047520A, “2'-alkylidenepyrimidine nucleoside derivatives, process for production thereof, and uses thereof” (Yamasa Shoyu Kabushiki Kaisha, priority 1987, dated 1991).

Values after ≈ are worked out from the molar mass of the structure shown.

Experiment [1] deals with HSV type 1 (HSV-1) strain VR-3. Description: anti-HSV activity: inhibition of cytopathic effect (CPE), HSV-1. Type of experiment: cell-based. The settings on record: Human alphaherpesvirus 1; HSV-1 strain VR-3, 100-320 TCID50; human embryonic lung cells; 37° C., 2 to 3 days; read-out: MIC HSV-1 (minimum concentration at which the CPE is inhibited at least by 50%). As for the experimental part:
(§1) A. Human embryonic lung cells are subcultivated in Eagle's MEM supplemented with 10% semi-fetal calf serum.
(§2) B. The cells thus subcultivated are used as a parent culture. A cell suspension obtained from the parent culture by dividing it at 1:2 split is seeded into 96 microwells in an amount of 150 μl/well and incubated in a CO2 -incubator at 37° C. for 4 to 5 days.
(§3) C. The culture field is discarded, and 100- to 320-50% tissue culture infective doses (100-320 TCID50) of HSV type 1 (HSV-1) strain VR-3 or HSV type 2 (HSV-2) strain MS is inoculated. After incubation at 37° C. for 1 hour, the virus fluid is discarded, 150 μl of Eagle's MEM supplemented with 2.5% semi-fetal calf serum and containing an appropriate amount of each test compound is added, and cultivation is carried out at 37° C. Each of the test compounds is usually diluted in the range of from 100 to 1 μg/ml by serial 0.5 log10 decrements.
(§4) D. After cultivation for 2 to 3 days, the degree of the cytopathic effect (CPE) caused by the viral infection in each of the wells is observed microscopically. At the time when the control cultures, in which the test compound is absent, have shown complete CPE by the viral infection, the degree of CPE in each well is rated from 0 to 4.
(§5) E. The minimum concentration at which the CPE is inhibited at least by 50% (indicated by the CPE score not exceeding 2) is defined as the minimum inhibitory concentration (MIC) of the test compound.
For orientation: Protection from cytopathic effect is a common read-out in antiviral testing.

For experiment [2], the system named is HSV type 2 (HSV-2) strain MS. Description: anti-HSV activity: inhibition of cytopathic effect (CPE), HSV-2. It counts as cell-based. The note with it: Human alphaherpesvirus 2, 100-320 TCID50, human embryonic lung cells, 37° C., 2 to 3 days, read-out: MIC HSV-2 (minimum concentration at which the CPE is inhibited at least by 50%). The protocol:
as §1, §2, §3, §4, §5

The subject of the next experiment is CMV strain AD 169. As to the kind of experiment: anti-CMV activity: inhibition of plaque formation. The settings on record: Human betaherpesvirus 5; CMV strain AD 169, about 50 plaque forming units; human embryonic lung cells; 37° C., 4 to 6 days; read-out: MIC CMV (minimum concentration at which the plaque formation is inhibited at least by 50%). It counts as cell-based, cytomegalovirus (CMV). As for the experimental part:
as §1
B. The cells thus subcultivated are used as a parent culture. A cell suspension obtained from the parent culture by dividing it at 1:2 split is seeded into 24 semi-microwells in an amount of 150 μl/well and incubated in a CO2 -incubator at 37° C. for 4 to 5 days.
C. The culture fluid is discarded, and about 50 plaque forming units of CMV strain AD 169 is inoculated. After incubation at 37° C. for 1 hour, 400 μl of Eagle's MEM supplemented with 2.5% semi-fetal calf serum and containing an appropriate amount of each test compound is added, and cultivation is carried out at 37° C. Each of the test compounds is usually diluted in the range of from 100 to 1 μg/ml by serial 0.5 log10 decrements.
D. After cultivation for 4 to 6 days, infected cells are stained with a 0.5% Crystal Violet solution, and the number of plaques formed is counted under the microscope.
E. The minimum concentration at which the plaque formation is inhibited at least by 50%, based on the number of plaques formed in the control cultures in which the test compound is absent, is defined as the minimum inhibitory concentration (MIC) of the test compound.

Take `C=C1[C@H](n2ccc(N)nc2=O)O[C@H](CO)[C@H]1O` [NH2 H H H, 2'-methylidene-2'-deoxycytidine]: the MIC is 1 µg/mL (≈ 4.18 µM) in experiment [1], 1 µg/mL (≈ 4.18 µM) in experiment [2] and 0.1 µg/mL (≈ 0.418 µM) in the experiment with CMV strain AD 169.
As for `C=C1[C@H](n2cc(Br)c(=O)[nH]c2=O)O[C@H](CO)[C@H]1O` [OH Br H H, 2'-methylidene-2'-deoxy-5-bromouridine], the MIC in experiment [1] and in experiment [2] was 3.2 µg/mL (≈ 10 µM) in each case.
Consider `CC=C1[C@H](n2cc(C)c(=O)[nH]c2=O)O[C@H](CO)[C@H]1O` [OH CH3 CH3 H, 2'-ethylidenethymidine], for which the MIC came to 10 µg/mL (≈ 37.3 µM) in experiment [1] and 32 µg/mL (≈ 119 µM) in experiment [2].
In the case of `C=C1[C@H](n2cc(C)c(=O)[nH]c2=O)O[C@H](CO)[C@H]1O` [OH CH3 H H, 2'-methylidenethymidine], the MIC in experiment [1] is 1 µg/mL (≈ 3.93 µM); in experiment [2], 1 µg/mL (≈ 3.93 µM); in the experiment with CMV strain AD 169, 5.6 µg/mL (≈ 22 µM).
`C=C1[C@H](n2cc(Cl)c(=O)[nH]c2=O)O[C@H](CO)[C@H]1O` [OH Cl H H, 2'-methylidene-2'-deoxy-5-chlorouridine]: the MIC in experiment [1] and in experiment [2] was 10 µg/mL (≈ 36.4 µM) throughout.
Turning to `C=C1[C@H](n2cc(I)c(=O)[nH]c2=O)O[C@H](CO)[C@H]1O` [OH I H H, 2'-methylidene-2'-deoxy-5-iodouridine], the MIC in experiment [1] and in experiment [2] was 1 µg/mL (≈ 2.73 µM) in each case.
